Results as given in patent US10988459B2 (priority 2015, dated 2021).

Each molecule was assayed against human RIP1 kinase domain (2-375) (Homo sapiens (Human), UniProt Q13546) (assay: biochemical). Conditions: human RIP1 kinase domain (2-375), Transcreener ADP assay, 50 uM ATP, 2 hours incubation; read-out: RIP1 Ki.
Assay type: biochemical
Method in brief: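 Ki^app comes from Morrison tight-binding fits of fractional activity versus compound concentration. Activity was read as ADP production, via tracer displacement lowering fluorescence polarization (633 nm laser). Conditions: 2 h, 50 nM insect-cell-expressed enzyme, 50 uM ATP, 30 mM MgCl2, 1 mM DTT, 0.5% DMSO, pH 7.5 Hepes.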

Sequence of human RIP1 kinase domain (2-375) (Q13546 2-375): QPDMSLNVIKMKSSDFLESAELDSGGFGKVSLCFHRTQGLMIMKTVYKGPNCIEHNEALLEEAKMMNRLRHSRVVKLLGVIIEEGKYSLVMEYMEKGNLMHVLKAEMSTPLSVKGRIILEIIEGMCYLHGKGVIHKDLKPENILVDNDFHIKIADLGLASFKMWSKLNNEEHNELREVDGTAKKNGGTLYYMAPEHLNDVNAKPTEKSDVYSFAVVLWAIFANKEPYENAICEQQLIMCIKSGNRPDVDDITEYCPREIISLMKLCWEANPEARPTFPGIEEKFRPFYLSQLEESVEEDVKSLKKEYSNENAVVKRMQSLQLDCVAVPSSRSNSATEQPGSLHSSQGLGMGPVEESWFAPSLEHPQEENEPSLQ

Structure (SMILES)	Ki
CN1C(=O)[C@@H](NC(=O)c2ncn(Cc3ccc(Cl)cc3Cl)n2)CCn2nc(C3CC3)cc21 [Example 307, (S)—N-(2-cyclopropyl-4-methyl-5-oxo-5,6,7,8-tetrahydro-4H-pyrazolo[1,5-a][1,3]diazepin-6-yl)-1-(2,4-dichlorobenzyl)-1H-1,2,4-triazole-3-carboxamide]	8.5 nM
CCCC1(C)OCc2cnc(C(=O)N[C@H]3COc4ccccc4N(C)C3=O)nc21 (stereo partly drawn) [Example 309, 7-methyl-N—((S)-5-methyl-4-oxo-2,3,4,5-tetrahydrobenzo[b][1,4]oxazepin-3-yl)-7-propyl-5,7-dihydrofuro[3,4-d]pyrimidine-2-carboxamide]	52.8 nM
CN1C(=O)[C@@H](NC(=O)c2ncn(Cc3cccc(F)c3F)n2)CCn2nc([C@H]3CC3(F)F)cc21 [Example 311, 1-(2,3-difluorobenzyl)-N—((S)-2-((R)-2,2-difluorocyclopropyl)-4-methyl-5-oxo-5,6,7,8-tetrahydro-4H-pyrazolo[1,5-a][1,3]diazepin-6-yl)-1H-1,2,4-triazole-3-carboxamide]	5250 nM
CN1C(=O)[C@@H](NC(=O)c2ncn(Cc3ccc(F)c(F)c3)n2)CCn2nc([C@H]3CC3(F)F)cc21 [Example 313, 1-(3,4-difluorobenzyl)-N—((S)-2-((R)-2,2-difluorocyclopropyl)-4-methyl-5-oxo-5,6,7,8-tetrahydro-4H-pyrazolo[1,5-a][1,3]diazepin-6-yl)-1H-1,2,4-triazole-3-carboxamide]	5940 nM
CN1C(=O)[C@H](NC(=O)c2ncn(Cc3ccc(F)c(F)c3)n2)CCn2nc([C@H]3CC3(F)F)cc21 [Example 314, 1-(3,4-difluorobenzyl)-N—((R)-2-((R)-2,2-difluorocyclopropyl)-4-methyl-5-oxo-5,6,7,8-tetrahydro-4H-pyrazolo[1,5-a][1,3]diazepin-6-yl)-1H-1,2,4-triazole-3-carboxamide]	43.5 nM
CN1C(=O)[C@H](NC(=O)c2ncn(Cc3ccc(F)cc3)n2)CCn2nc([C@H]3CC3(F)F)cc21 [Example 318, N—((R)-2-((R)-2,2-difluorocyclopropyl)-4-methyl-5-oxo-5,6,7,8-tetrahydro-4H-pyrazolo[1,5-a][1,3]diazepin-6-yl)-1-(4-fluorobenzyl)-1H-1,2,4-triazole-3-carboxamide]	25.3 nM
CC[C@]1(C)OCc2cnc(C(=O)N[C@H]3CCn4nc([C@H]5CC5(F)F)cc4N(C)C3=O)cc21 [Example 319, (S)—N—((S)-2-((R)-2,2-difluorocyclopropyl)-4-methyl-5-oxo-5,6,7,8-tetrahydro-4H-pyrazolo[1,5-a][1,3]diazepin-6-yl)-1-ethyl-1-methyl-1,3-dihydrofuro[3,4-c]pyridine-6-carboxamide]	> 10000 nM
CN1C(=O)[C@@H](NC(=O)c2ncn(Cc3cccc(F)c3F)n2)CCn2nc([C@@H]3CC3(F)F)cc21 [Example 320, 1-(2,3-difluorobenzyl)-N—((S)-2-((S)-2,2-difluorocyclopropyl)-4-methyl-5-oxo-5,6,7,8-tetrahydro-4H-pyrazolo[1,5-a][1,3]diazepin-6-yl)-1H-1,2,4-triazole-3-carboxamide]	16.4 nM
CN1C(=O)[C@@H](NC(=O)c2ncn(Cc3ccc(F)c(F)c3)n2)CCn2nc([C@@H]3CC3(F)F)cc21 [Example 321, 1-(3,4-difluorobenzyl)-N—((S)-2-((S)-2,2-difluorocyclopropyl)-4-methyl-5-oxo-5,6,7,8-tetrahydro-4H-pyrazolo[1,5-a][1,3]diazepin-6-yl)-1H-1,2,4-triazole-3-carboxamide]	67 nM
CN1C(=O)[C@@H](NC(=O)c2ncn(Cc3ccc(F)cc3F)n2)CCn2nc([C@@H]3CC3(F)F)cc21 [Example 322, 1-(2,4-difluorobenzyl)-N—((S)-2-((S)-2,2-difluorocyclopropyl)-4-methyl-5-oxo-5,6,7,8-tetrahydro-4H-pyrazolo[1,5-a][1,3]diazepin-6-yl)-1H-1,2,4-triazole-3-carboxamide]	28.6 nM
CN1C(=O)[C@@H](NC(=O)c2ncn(Cc3ccc(F)cc3)n2)CCn2nc([C@@H]3CC3(F)F)cc21 [Example 323, N—((S)-2-((S)-2,2-difluorocyclopropyl)-4-methyl-5-oxo-5,6,7,8-tetrahydro-4H-pyrazolo[1,5-a][1,3]diazepin-6-yl)-1-(4-fluorobenzyl)-1H-1,2,4-triazole-3-carboxamide]	57.8 nM
CC[C@@]1(C)OCc2cnc(C(=O)N[C@H]3CCn4nc([C@@H]5CC5(F)F)cc4N(C)C3=O)cc21 [Example 325, (R)—N—((S)-2-((S)-2,2-difluorocyclopropyl)-4-methyl-5-oxo-5,6,7,8-tetrahydro-4H-pyrazolo[1,5-a][1,3]diazepin-6-yl)-1-ethyl-1-methyl-1,3-dihydrofuro[3,4-c]pyridine-6-carboxamide]	3340 nM
CCC1(C)OCc2cnc(C(=O)N[C@H]3CCn4nc(C)cc4N(C)C3=O)nc21 (stereo partly drawn) [Example 326, N—((S)-2,4-dimethyl-5-oxo-5,6,7,8-tetrahydro-4H-pyrazolo[1,5-a][1,3]diazepin-6-yl)-7-ethyl-7-methyl-5,7-dihydrofuro[3,4-d]pyrimidine-2-carboxamide]	618 nM
CN1C(=O)[C@@H](NC(=O)c2cc(C3(O)CCC3)ccn2)COc2ccccc21 [Example 327, (S)-4-(1-hydroxycyclobutyl)-N-(5-methyl-4-oxo-2,3,4,5-tetrahydrobenzo[b][1,4]oxazepin-3-yl)picolinamide]	1370 nM
CN1C(=O)[C@@H](NC(=O)c2cc(C3(O)CCCC3)ccn2)COc2ccccc21 [Example 328, (S)-4-(1-hydroxycyclopentyl)-N-(5-methyl-4-oxo-2,3,4,5-tetrahydrobenzo[b][1,4]oxazepin-3-yl)picolinamide]	990 nM
Cc1cc2n(n1)CC[C@@H](NC(=O)c1nnc(Cc3ccc(F)cc3)[nH]1)C(=O)N2C [Example 329, (R)—N-(2,4-dimethyl-5-oxo-5,6,7,8-tetrahydro-4H-pyrazolo[1,5-a][1,3]diazepin-6-yl)-5-(4-fluorobenzyl)-4H-1,2,4-triazole-3-carboxamide]	3810 nM
Cc1nn2c(c1C)N(C)C(=O)[C@@H](NC(=O)c1nnc(Cc3ccc(F)cc3)[nH]1)CC2 [Example 330, (S)-5-(4-fluorobenzyl)-N-(2,3,4-trimethyl-5-oxo-5,6,7,8-tetrahydro-4H-pyrazolo[1,5-a][1, 3]diazepin-6-yl)-4H-1,2,4-triazole-3-carboxamide]	103 nM

Next, values leading:

Ki	Structure (SMILES)
14.6 nM	CN1C(=O)[C@@H](NC(=O)c2ncn(Cc3cccc(Cl)c3Cl)n2)CCn2nc(C3CC3)cc21 [Example 306, (S)—N-(2-cyclopropyl-4-methyl-5-oxo-5,6,7,8-tetrahydro-4H-pyrazolo[1,5-a][1,3]diazepin-6-yl)-1-(2,3-dichlorobenzyl)-1H-1,2,4-triazole-3-carboxamide]
172 nM	CN1C(=O)[C@@H](NC(=O)c2ncn(CC3(C)CC3)n2)CCn2nc(C3CC3)cc21 [Example 308, (S)—N-(2-cyclopropyl-4-methyl-5-oxo-5,6,7,8-tetrahydro-4H-pyrazolo[1,5-a][1,3]diazepin-6-yl)-1-((1-methylcyclopropyl)methyl)-1H-1,2,4-triazole-3-carboxamide]
37.2 nM	CCC1(C)OCc2cnc(C(=O)N[C@H]3COc4ccccc4N(C)C3=O)nc21 (stereo partly drawn) [Example 310, 7-ethyl-7-methyl-N—((S)-5-methyl-4-oxo-2,3,4,5-tetrahydrobenzo[b][1,4]oxazepin-3-yl)-5,7-dihydrofuro[3,4-d]pyrimidine-2-carboxamide]
17.8 nM	CN1C(=O)[C@H](NC(=O)c2ncn(Cc3cccc(F)c3F)n2)CCn2nc([C@H]3CC3(F)F)cc21 [Example 312, 1-(2,3-difluorobenzyl)-N—((R)-2-((R)-2,2-difluorocyclopropyl)-4-methyl-5-oxo-5,6,7,8-tetrahydro-4H-pyrazolo[1,5-a][1,3]diazepin-6-yl)-1H-1,2,4-triazole-3-carboxamide]
9500 nM	CN1C(=O)[C@@H](NC(=O)c2ncn(Cc3ccc(F)cc3F)n2)CCn2nc([C@H]3CC3(F)F)cc21 [Example 315, 1-(2,4-difluorobenzyl)-N—((S)-2-((R)-2,2-difluorocyclopropyl)-4-methyl-5-oxo-5,6,7,8-tetrahydro-4H-pyrazolo[1,5-a][1,3]diazepin-6-yl)-1H-1,2,4-triazole-3-carboxamide]
31.8 nM	CN1C(=O)[C@H](NC(=O)c2ncn(Cc3ccc(F)cc3F)n2)CCn2nc([C@H]3CC3(F)F)cc21 [Example 316, 1-(2,4-difluorobenzyl)-N—((R)-2-((R)-2,2-difluorocyclopropyl)-4-methyl-5-oxo-5,6,7,8-tetrahydro-4H-pyrazolo[1,5-a][1,3]diazepin-6-yl)-1H-1,2,4-triazole-3-carboxamide]
6610 nM	CN1C(=O)[C@@H](NC(=O)c2ncn(Cc3ccc(F)cc3)n2)CCn2nc([C@H]3CC3(F)F)cc21 [Example 317, N—((S)-2-((R)-2,2-difluorocyclopropyl)-4-methyl-5-oxo-5,6,7,8-tetrahydro-4-pyrazolo[1,5-a][1,3]diazepin-6-yl)-1-(4-fluorobenzyl)-1H-1,2,4-triazole-3-carboxamide]
1290 nM	CC[C@@]1(C)OCc2cnc(C(=O)N[C@@H]3CCn4nc([C@H]5CC5(F)F)cc4N(C)C3=O)cc21 [Example 324, (R)—N—((R)-2-((R)-2,2-difluorocyclopropyl)-4-methyl-5-oxo-5,6,7,8-tetrahydro-4H-pyrazolo[1,5-a][1,3]diazepin-6-yl)-1-ethyl-1-methyl-1,3-dihydrofuro[3,4-c]pyridine-6-carboxamide]
13 nM	CN1C(=O)[C@@H](NC(=O)c2ncn(Cc3cccc(F)c3F)n2)CCn2nc(C3CC3)cc21 [Example 331, (S)—N-(2-cyclopropyl-4-methyl-5-oxo-5,6,7,8-tetrahydro-4H-pyrazolo[1,5-a][1,3]diazepin-6-yl)-1-(2,3-difluorobenzyl)-1H-1,2,4-triazole-3-carboxamide]
